Columns and labels:
BMP type I receptor ALK6 = BMP type I receptor ALK6 (Homo sapiens, UniProt O00238); conditions: cited from earlier work
BMP type I receptor ALK2 = molecular target: T1, BMP type I receptor ALK2 (Homo sapiens, UniProt Q04771); conditions: cited from earlier work
T1 sequence (Q04771 21-509): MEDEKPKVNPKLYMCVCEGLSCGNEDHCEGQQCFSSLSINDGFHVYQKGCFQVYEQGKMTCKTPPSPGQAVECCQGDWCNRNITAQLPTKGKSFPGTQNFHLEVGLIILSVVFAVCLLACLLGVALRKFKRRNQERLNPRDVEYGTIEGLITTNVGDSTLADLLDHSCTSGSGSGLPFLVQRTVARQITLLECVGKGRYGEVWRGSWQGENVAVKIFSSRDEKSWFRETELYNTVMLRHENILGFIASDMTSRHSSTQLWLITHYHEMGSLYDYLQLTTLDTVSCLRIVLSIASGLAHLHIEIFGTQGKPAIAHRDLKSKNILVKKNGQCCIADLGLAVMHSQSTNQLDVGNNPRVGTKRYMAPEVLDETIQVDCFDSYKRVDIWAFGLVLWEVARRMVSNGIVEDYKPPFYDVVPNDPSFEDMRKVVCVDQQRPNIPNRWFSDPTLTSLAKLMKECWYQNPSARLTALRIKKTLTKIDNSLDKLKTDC

[1] = test system: periosteal progenitor cells isolated from autograft periosteum; experiment: Osteogenic differentiation of periosteal progenitor cells, BMP-2 in combination with TGF-β inhibitor; format: cell-based
Description: To test the potential reciprocal regulation of both BMP and TGF-β signaling in repair, periosteal progenitor cells were isolated from autograft periosteum (Wang, et al. (2010) Am. J. Pathol., 177:3100-3111; Huang, et al. (2014) Mol. Ther., 22:430-439; Huang, et al. (2014) PLoS One, 9:e100079). The osteogenic differentiation of BMP-2 ([…]) in combination with TGF-β inhibitors was examined. Corilagin (1 μm) potentiated the effects of BMP-2 on osteoblastic differentiation as evidenced by increased alkaline phosphatase (ALP) staining and enhanced expression of ALP and osterix (Osx) in 10-day cultures (FIG. 7).

normal cells and tissues = conditions: cited from earlier work
BMP type I receptor ALK3 = BMP type I receptor ALK3 (Homo sapiens, UniProt P36894); conditions: cited from earlier work
BMP type I receptor ALK3, sequence (P36894 24-532): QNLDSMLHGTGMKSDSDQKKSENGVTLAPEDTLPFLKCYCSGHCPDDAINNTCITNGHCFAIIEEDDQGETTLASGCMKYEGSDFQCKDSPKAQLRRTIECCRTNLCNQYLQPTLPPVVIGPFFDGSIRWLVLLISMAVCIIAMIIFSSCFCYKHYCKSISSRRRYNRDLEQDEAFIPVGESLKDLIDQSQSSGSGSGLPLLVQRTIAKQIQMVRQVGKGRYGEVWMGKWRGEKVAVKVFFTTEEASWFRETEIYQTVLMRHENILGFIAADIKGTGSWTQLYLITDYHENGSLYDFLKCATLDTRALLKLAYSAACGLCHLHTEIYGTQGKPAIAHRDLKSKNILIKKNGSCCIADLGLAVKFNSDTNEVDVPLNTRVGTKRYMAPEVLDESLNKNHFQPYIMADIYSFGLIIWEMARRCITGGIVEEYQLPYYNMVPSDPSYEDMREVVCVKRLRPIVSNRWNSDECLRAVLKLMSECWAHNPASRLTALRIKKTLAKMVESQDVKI

fibrosis in lung = conditions: mouse model; cited from earlier work
[2] = test system: TGF-β-dependent epithelial-mesenchymal transition (EMT); conditions: cited from earlier work
Tgfbrl/ALK5 kinase = molecular target: T2, Tgfbrl/ALK5 kinase (Homo sapiens, UniProt P36897); conditions: cited from earlier work
T2 sequence (P36897 34-503): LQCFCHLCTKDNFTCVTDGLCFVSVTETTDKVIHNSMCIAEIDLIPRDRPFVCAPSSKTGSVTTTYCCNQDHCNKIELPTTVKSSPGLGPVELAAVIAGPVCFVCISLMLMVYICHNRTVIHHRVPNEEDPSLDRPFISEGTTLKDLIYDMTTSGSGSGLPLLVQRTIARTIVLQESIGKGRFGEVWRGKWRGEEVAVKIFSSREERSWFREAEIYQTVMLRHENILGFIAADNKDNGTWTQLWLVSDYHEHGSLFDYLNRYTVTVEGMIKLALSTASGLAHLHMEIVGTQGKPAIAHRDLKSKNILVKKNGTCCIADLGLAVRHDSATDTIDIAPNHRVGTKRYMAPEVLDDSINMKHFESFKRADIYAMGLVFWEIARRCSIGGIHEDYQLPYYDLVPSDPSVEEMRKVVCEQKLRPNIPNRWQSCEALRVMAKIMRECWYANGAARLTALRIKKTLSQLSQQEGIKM

receptors of BMPs = conditions: cited from earlier work
[3] = BMP-2 peptide loading and in vitro release from electrospray-coated bone allografts; format: physicochemical; conditions: from PLGA 50:50 coated allograft, during the first 4 weeks
Description: For quantification of peptide loading and release kinetics, 5 mg FITC labeled BMP-2 peptide was dispersed in 5% (w/v) of PLGA in DCM in glass vials and used for electrospray-mediated allograft coating. The amount of BMP-2 peptide loaded per graft was calculated from the difference in the weights of the bone samples before and after electrospray coating as well as accounting for the polymer:peptide ratio of 50:1 (Boda, et al. (2019) Acta Biomater., 85:282-93). The duration of the electrospray coating was adjusted to achieve an increase of 2-3 mg in the weights of the electrospray coated bone samples as compared to the corresponding uncoated ones. The FITC-labeled peptide release from the bone allograft was recorded by measuring the fluorescence intensities of the buffer aliquots at regular intervals using excitation and emission filters of 485 and 528 nm, respectively.
Similarly, to measure the peptide loading and release kinetics from PCL-gelatin coated allografts, the PCL-gelatin HFIP solution containing 5 mg FITC labeled BMP-2 peptide was used for coating. PCL-Gelatin (2.5 wt % each) and 5 mg of BMP-2 peptide were mixed by ultrasonication. […] The peptide release from the PCL-gelatin bone allograft was recorded by measuring the fluorescence intensities of the buffer aliquots at regular intervals (Boda, et al. (2019) Acta Biomater., 85:282-93). […]

[4] = Corilagin (1 μm) with BMP-2 (50 μg/ml), 10-day cultures

BMP type I receptor ALK6, sequence (O00238 14-502): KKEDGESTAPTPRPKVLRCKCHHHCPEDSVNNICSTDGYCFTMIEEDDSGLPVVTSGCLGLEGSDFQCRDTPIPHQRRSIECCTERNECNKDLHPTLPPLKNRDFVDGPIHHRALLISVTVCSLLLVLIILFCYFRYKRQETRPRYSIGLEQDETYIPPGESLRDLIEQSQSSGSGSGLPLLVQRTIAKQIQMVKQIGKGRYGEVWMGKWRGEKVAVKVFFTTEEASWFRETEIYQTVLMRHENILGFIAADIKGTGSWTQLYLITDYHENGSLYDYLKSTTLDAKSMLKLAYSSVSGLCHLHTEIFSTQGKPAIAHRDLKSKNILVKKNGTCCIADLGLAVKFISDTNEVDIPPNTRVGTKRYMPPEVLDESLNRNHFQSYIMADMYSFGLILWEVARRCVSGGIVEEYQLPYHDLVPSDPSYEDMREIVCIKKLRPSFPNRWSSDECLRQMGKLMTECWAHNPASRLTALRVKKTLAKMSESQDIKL

| Compound | inhibition of BMP type I receptor ALK6 (BMP type I receptor ALK6) | inhibition of BMP type I receptor ALK2 (BMP type I receptor ALK2) | alkaline phosphatase (ALP) staining [1, 4] | effects of BMP-2 on osteoblastic differentiation [1, 4] | expression of ALP [1, 4] | expression of osterix (Osx) [1, 4] | synergism with BMP-2 ([1]; FIG. 7, ALP and Osx expression after 10 days) | toxicity toward normal cells and tissues (normal cells and tissues) | inhibition of BMP type I receptor ALK3 (BMP type I receptor ALK3) | fibrosis in lung (fibrosis in lung) | TGF-β-dependent epithelial-mesenchymal transition (EMT) [2] | Tgfbrl/ALK5 kinase activity (Tgfbrl/ALK5 kinase) | binding and activation of the receptors of BMPs (receptors of BMPs) | loaded peptide released [3] |
| --- | --- | --- | --- | --- | --- | --- | --- | --- | --- | --- | --- | --- | --- | --- |
| O=C(O[C@@H]1O[C@@H]2COC(=O)c3cc(O)c(O)c(O)c3-c3c(cc(O)c(O)c3O)C(=O)O[C@H]([C@H]1O)[C@@H]2O)c1cc(O)c(O)c(O)c1 [Corilagin] | without inhibiting | without inhibiting | increased | potentiated | enhanced | enhanced | strong synergism | low level | without inhibiting | attenuates | inhibits | strongly inhibits | – | – |
| KIPKASSVPTELSAISTLYL (BMP-2 peptide) [short-chain BMP-2 mimetic peptide (Genscript)] | – | – | – | – | – | – | – | – | – | – | – | – | binds and activates | Nearly all |
